Measurements reported in ChEMBL document CHEMBL4196099, “Factor XIa Inhibitors as New Anticoagulants” (J Med Chem, 2018).
Blank lines part the entries; values can stand above or below the compound they belong to.

What was measured:
Coagulation factor XI [1] = target: T1, Coagulation factor XI (Homo sapiens, UniProt P03951); experiment: Inhibition of human factor 11a incubated for 60 mins by Cheng-Prusoff equation analysis
Coagulation factor XI [2] = target: T1, Coagulation factor XI; experiment: Inhibition of human factor 11a assessed as reduction in para-nitroanilide releasee using pyroGlu-Pro-Arg-pNA.HCl substrate by chromogenic assay
Tryptase = Tryptase (Homo sapiens, UniProt Q9BZJ3+Q15661+Q9NRR2); experiment: Inhibition of human lung tryptase using Z-glypro-arg-AMC incubated for 3 mins by spectrophotometry; format: protein assay
Trypsin = Trypsin (Homo sapiens, UniProt P07477+P07478+P35030); experiment: Inhibition of trypsin (unknown origin) using Chromozyme-TRY substrate incubated for 3 mins by spectrophotometry; format: protein assay
Oryctolagus cuniculus [3] = species: Oryctolagus cuniculus; experiment: Antithrombotic activity in rabbit model of arteriovenous-shunt thrombosis; format: functional
Oryctolagus cuniculus [4] = species: Oryctolagus cuniculus; experiment: Antithrombotic activity in rabbit model of venous thrombosis; format: functional
Oryctolagus cuniculus [5] = species: Oryctolagus cuniculus; experiment: Antithrombotic activity in rabbit model of electrolytic-mediated carotid arterial thrombosis; format: functional
[6] = Terminal half life in healthy human following administration of 2 hrs and 5 day continuous iv infusion; format: ADME, organism-based; conditions: in vivo, read-out: beta t1/2

T1 sequence (P03951 19-387 limits assumed): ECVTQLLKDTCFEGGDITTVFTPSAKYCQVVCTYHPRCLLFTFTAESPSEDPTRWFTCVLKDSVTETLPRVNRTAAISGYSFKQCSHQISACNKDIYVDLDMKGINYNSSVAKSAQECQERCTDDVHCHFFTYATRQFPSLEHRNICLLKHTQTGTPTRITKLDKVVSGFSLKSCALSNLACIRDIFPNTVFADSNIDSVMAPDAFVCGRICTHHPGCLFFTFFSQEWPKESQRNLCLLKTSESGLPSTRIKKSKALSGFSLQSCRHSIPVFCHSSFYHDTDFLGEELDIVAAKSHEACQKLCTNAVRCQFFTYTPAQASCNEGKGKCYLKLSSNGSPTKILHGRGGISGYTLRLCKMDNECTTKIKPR
T1 sequence (P03951 388-625 limits assumed): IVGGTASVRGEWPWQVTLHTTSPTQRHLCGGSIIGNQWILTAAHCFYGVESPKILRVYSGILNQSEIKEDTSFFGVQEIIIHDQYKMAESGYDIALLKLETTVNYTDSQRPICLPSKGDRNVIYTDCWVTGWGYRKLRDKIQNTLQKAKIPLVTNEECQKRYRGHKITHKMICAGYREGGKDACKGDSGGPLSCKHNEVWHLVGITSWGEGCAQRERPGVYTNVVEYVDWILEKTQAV

- Ki (Coagulation factor XI [1]): 0.0003 µM
Compound: COC(=O)Nc1ccc2c(c1)NC(=O)CCCC[C@H](NC(=O)[C@H]1CC[C@H](CN)CC1)c1nc-2c[nH]1

- Kd (Coagulation factor XI [2]): 1400 µM
Compound: CNC(=O)[C@H](Cc1ccccc1)NC(=O)c1ccc2[nH]c(=O)cc(O)c2c1

- IC50 (Tryptase): 0.005 µM
- IC50 (Trypsin): 0.05 µM
Compound: CC(C)(C)NC(=O)N1CCN(C(=O)N2C(=O)[C@H](CCCN=C(N)N)[C@H]2C(=O)O)CC1
- ED50 (Oryctolagus cuniculus [3]): 0.4 mg/kg/h
- ED50 (Oryctolagus cuniculus [4]): 0.7 mg/kg/h
- ED50 (Oryctolagus cuniculus [5]): 1.5 mg/kg/h

- half-life [6]: 6 to 9 h
Compound: CN1CCN(c2cccc3c2CCN(C(=O)/C=C/c2c(-n4cnnn4)ccc(Cl)c2F)[C@@H]3C(=O)Nc2ccc(C(=O)O)cc2)C(=O)C1 [BMS-962212]
